From US20260234115A1, “LIPID COMPOUNDS, COMPOSITIONS, AND USES THEREOF” (Liberate Bio, Inc., priority 2023, published 2026)
Marks after values point to notes of the source that are not given here.

Assays:
[1] = Dynamic light scattering: LNP particle size and PDI; assay type: physicochemical; settings: LNP compositions for Formulation F2 Study
How it was run: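 The LNPs were made by microfluidic mixing of the lipids in ethanol with mRNA in pH 4.0 citrate, then dialyzed into PBS pH 7.4. They were diluted in PBS pH 7.4, and particle size and PDI were measured by dynamic light scattering.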

[2] = system: mouse organs; assay: In vivo activity screening in mice: organ mean total flux (p/s) of luciferase activity after injection of F2 LNP pools (Table 6, FIG. 7A-7C); settings: luciferase mRNA
How it was run: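 C57BL/6J mice given one tail-vein injection of pooled Formulation F2 LNPs carrying firefly luciferase mRNA (0.25-3 mg/kg) in PBS. At 4-6 h, s.c. D-luciferin given; organs imaged ex vivo by IVIS within 10-15 min, after saline cardiac perfusion. Mean total flux (p/s) per organ ROI.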

[3] = Plate-based fluorescence (RiboGreen) assay: nucleic acid cargo content and encapsulation efficiency of LNPs; assay type: physicochemical; settings: LNP compositions for Formulation F2 Study
How it was run: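 LNPs made by microfluidic mixing of ethanolic lipids with mRNA in pH 4.0 citrate, dialyzed into PBS pH 7.4. Cargo quantified by RiboGreen fluorescence against a standard curve: Triton-lysed samples give total, TE-only samples give free cargo; encapsulation efficiency from their ratio.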

- PDI [1]: 0.098
- Particle Size (nm) [1]: 87.8 nm
- EE % [3]: 98%
Compound: CCCCC/C=C\C/C=C\CCCCCCCCC(CCCCCCCC/C=C\C/C=C\CCCCC)OC(=O)CCCN(C)C [MC3, reference compound]
- Organ Mean Total Flux Femur ([2]; Mouse 1, dose 0.3 mg/kg): 8.5 p/s (×10^6)
- Organ Mean Total Flux Heart ([2]; Mouse 1, dose 0.3 mg/kg): 2.8 p/s (×10^6)
- Organ Mean Total Flux Kidney ([2]; Mouse 1, dose 0.3 mg/kg): 1.9 p/s (×10^6)
- Organ Mean Total Flux Liver ([2]; Mouse 1, dose 0.3 mg/kg): 6896 p/s (×10^6)
- Organ Mean Total Flux Lung ([2]; Mouse 1, dose 0.3 mg/kg): 17.2 p/s (×10^6)
- Organ Mean Total Flux Muscle ([2]; Mouse 1, dose 0.3 mg/kg): 7.5 p/s (×10^6)
- Organ Mean Total Flux Pancreas ([2]; Mouse 1, dose 0.3 mg/kg): 2.6 p/s (×10^6)
- Organ Mean Total Flux Spleen ([2]; Mouse 1, dose 0.3 mg/kg): 22.3 p/s (×10^6)
- Organ Mean Total Flux Femur ([2]; Mouse 2, dose 1.0 mg/kg): 9.9 p/s (×10^6)
- Organ Mean Total Flux Heart ([2]; Mouse 2, dose 1.0 mg/kg): 17.0 p/s (×10^6)
- Organ Mean Total Flux Kidney ([2]; Mouse 2, dose 1.0 mg/kg): 16.6 p/s (×10^6)
- Organ Mean Total Flux Liver ([2]; Mouse 2, dose 1.0 mg/kg): 15500 p/s (×10^6)
- Organ Mean Total Flux Lung ([2]; Mouse 2, dose 1.0 mg/kg): 60.5 p/s (×10^6)
- Organ Mean Total Flux Muscle ([2]; Mouse 2, dose 1.0 mg/kg): 16.6 p/s (×10^6)
- Organ Mean Total Flux Pancreas ([2]; Mouse 2, dose 1.0 mg/kg): 7.4 p/s (×10^6)
- Organ Mean Total Flux Spleen ([2]; Mouse 2, dose 1.0 mg/kg): 23.0 p/s (×10^6)
- Organ Mean Total Flux Femur ([2]; Mouse 3, dose 1.0 mg/kg): 6.9 p/s (×10^6)
- Organ Mean Total Flux Heart ([2]; Mouse 3, dose 1.0 mg/kg): 8.5 p/s (×10^6)
- Organ Mean Total Flux Kidney ([2]; Mouse 3, dose 1.0 mg/kg): 7.3 p/s (×10^6)
- Organ Mean Total Flux Liver ([2]; Mouse 3, dose 1.0 mg/kg): 9707 p/s (×10^6)
- Organ Mean Total Flux Lung ([2]; Mouse 3, dose 1.0 mg/kg): 106.4 p/s (×10^6)
- Organ Mean Total Flux Muscle ([2]; Mouse 3, dose 1.0 mg/kg): 23.6 p/s (×10^6)
- Organ Mean Total Flux Pancreas ([2]; Mouse 3, dose 1.0 mg/kg): 2.7 p/s (×10^6)
- Organ Mean Total Flux Spleen ([2]; Mouse 3, dose 1.0 mg/kg): 22.8 p/s (×10^6)
- Organ Mean Total Flux Femur ([2]; Mouse 5, dose 0.5 mg/kg): 4.8 p/s (×10^6)
- Organ Mean Total Flux Heart ([2]; Mouse 5, dose 0.5 mg/kg): 5.7 p/s (×10^6)
- Organ Mean Total Flux Kidney ([2]; Mouse 5, dose 0.5 mg/kg): 18.6 p/s (×10^6)
- Organ Mean Total Flux Liver ([2]; Mouse 5, dose 0.5 mg/kg): 5667 p/s (×10^6)
- Organ Mean Total Flux Lung ([2]; Mouse 5, dose 0.5 mg/kg): 34.5 p/s (×10^6)
- Organ Mean Total Flux Muscle ([2]; Mouse 5, dose 0.5 mg/kg): 10.0 p/s (×10^6)
- Organ Mean Total Flux Pancreas ([2]; Mouse 5, dose 0.5 mg/kg): 1.9 p/s (×10^6)
- Organ Mean Total Flux Spleen ([2]; Mouse 5, dose 0.5 mg/kg): 17.6 p/s (×10^6)
- Organ Mean Total Flux Femur ([2]; Mouse 6, dose 0.5 mg/kg): 3.3 p/s (×10^6)
- Organ Mean Total Flux Heart ([2]; Mouse 6, dose 0.5 mg/kg): 5.2 p/s (×10^6)
- Organ Mean Total Flux Kidney ([2]; Mouse 6, dose 0.5 mg/kg): 3.9 p/s (×10^6)
- Organ Mean Total Flux Liver ([2]; Mouse 6, dose 0.5 mg/kg): 4796 p/s (×10^6)
- Organ Mean Total Flux Lung ([2]; Mouse 6, dose 0.5 mg/kg): 28.6 p/s (×10^6)
- Organ Mean Total Flux Muscle ([2]; Mouse 6, dose 0.5 mg/kg): 8.2 p/s (×10^6)
- Organ Mean Total Flux Pancreas ([2]; Mouse 6, dose 0.5 mg/kg): 3.6 p/s (×10^6)
- Organ Mean Total Flux Spleen ([2]; Mouse 6, dose 0.5 mg/kg): 11.7 p/s (×10^6)
- Organ Mean Total Flux Femur ([2]; Mouse 9, dose 0.5 mg/kg): 3.8 p/s (×10^6)
- Organ Mean Total Flux Heart ([2]; Mouse 9, dose 0.5 mg/kg): 4.1 p/s (×10^6)
- Organ Mean Total Flux Kidney ([2]; Mouse 9, dose 0.5 mg/kg): 2.1 p/s (×10^6)
- Organ Mean Total Flux Liver ([2]; Mouse 9, dose 0.5 mg/kg): 3903 p/s (×10^6)
- Organ Mean Total Flux Lung ([2]; Mouse 9, dose 0.5 mg/kg): 12.7 p/s (×10^6)
- Organ Mean Total Flux Muscle ([2]; Mouse 9, dose 0.5 mg/kg): 5.6 p/s (×10^6)
- Organ Mean Total Flux Pancreas ([2]; Mouse 9, dose 0.5 mg/kg): 1.1 p/s (×10^6)
- Organ Mean Total Flux Spleen ([2]; Mouse 9, dose 0.5 mg/kg): 5.4 p/s (×10^6)
- Organ Mean Total Flux Femur ([2]; Mouse 11, dose 0.5 mg/kg): 2.2 p/s (×10^6)
- Organ Mean Total Flux Heart ([2]; Mouse 11, dose 0.5 mg/kg): 2.9 p/s (×10^6)
- Organ Mean Total Flux Kidney ([2]; Mouse 11, dose 0.5 mg/kg): 1.0 p/s (×10^6)
- Organ Mean Total Flux Liver ([2]; Mouse 11, dose 0.5 mg/kg): 2603 p/s (×10^6)
- Organ Mean Total Flux Lung ([2]; Mouse 11, dose 0.5 mg/kg): 12.1 p/s (×10^6)
- Organ Mean Total Flux Muscle ([2]; Mouse 11, dose 0.5 mg/kg): 2.7 p/s (×10^6)
- Organ Mean Total Flux Pancreas ([2]; Mouse 11, dose 0.5 mg/kg): 0.7 p/s (×10^6)
- Organ Mean Total Flux Spleen ([2]; Mouse 11, dose 0.5 mg/kg): 4.0 p/s (×10^6)
- Organ Mean Total Flux Femur ([2]; Mouse 12, dose 0.5 mg/kg): 5.8 p/s (×10^6)
- Organ Mean Total Flux Heart ([2]; Mouse 12, dose 0.5 mg/kg): 2.4 p/s (×10^6)
- Organ Mean Total Flux Kidney ([2]; Mouse 12, dose 0.5 mg/kg): 53.9 p/s (×10^6)
- Organ Mean Total Flux Liver ([2]; Mouse 12, dose 0.5 mg/kg): 2307 p/s (×10^6)
- Organ Mean Total Flux Lung ([2]; Mouse 12, dose 0.5 mg/kg): 13.7 p/s (×10^6)
- Organ Mean Total Flux Muscle ([2]; Mouse 12, dose 0.5 mg/kg): 4.1 p/s (×10^6)
- Organ Mean Total Flux Pancreas ([2]; Mouse 12, dose 0.5 mg/kg): 9.6 p/s (×10^6)
- Organ Mean Total Flux Spleen ([2]; Mouse 12, dose 0.5 mg/kg): 8.6 p/s (×10^6)
- Organ Mean Total Flux Femur ([2]; Mouse 13, dose 0.5 mg/kg): 2.7 p/s (×10^6)
- Organ Mean Total Flux Heart ([2]; Mouse 13, dose 0.5 mg/kg): 5.0 p/s (×10^6)
- Organ Mean Total Flux Kidney ([2]; Mouse 13, dose 0.5 mg/kg): 0.9 p/s (×10^6)
- Organ Mean Total Flux Liver ([2]; Mouse 13, dose 0.5 mg/kg): 1767 p/s (×10^6)
- Organ Mean Total Flux Lung ([2]; Mouse 13, dose 0.5 mg/kg): 8.3 p/s (×10^6)
- Organ Mean Total Flux Muscle ([2]; Mouse 13, dose 0.5 mg/kg): 2.8 p/s (×10^6)
- Organ Mean Total Flux Pancreas ([2]; Mouse 13, dose 0.5 mg/kg): 0.8 p/s (×10^6)
- Organ Mean Total Flux Spleen ([2]; Mouse 13, dose 0.5 mg/kg): 5.7 p/s (×10^6)
- Organ Mean Total Flux Femur ([2]; Mouse 14, dose 0.5 mg/kg): 2.2 p/s (×10^6)
- Organ Mean Total Flux Heart ([2]; Mouse 14, dose 0.5 mg/kg): 4.4 p/s (×10^6)
- Organ Mean Total Flux Kidney ([2]; Mouse 14, dose 0.5 mg/kg): 26.8 p/s (×10^6)
- Organ Mean Total Flux Liver ([2]; Mouse 14, dose 0.5 mg/kg): 2037 p/s (×10^6)
- Organ Mean Total Flux Lung ([2]; Mouse 14, dose 0.5 mg/kg): 19.3 p/s (×10^6)
- Organ Mean Total Flux Muscle ([2]; Mouse 14, dose 0.5 mg/kg): 5.7 p/s (×10^6)
- Organ Mean Total Flux Pancreas ([2]; Mouse 14, dose 0.5 mg/kg): 1.2 p/s (×10^6)
- Organ Mean Total Flux Spleen ([2]; Mouse 14, dose 0.5 mg/kg): 8.5 p/s (×10^6)
